Experimental data reported in ChEMBL document CHEMBL6078646, “Target Ligand Separation and Identification of Isoforsythiaside as a Histone Lysine-Specific Demethylase 1 Covalent Inhibitor Against Breast Cancer Metastasis” (J Med Chem, 2024).
Values belong to the compound of their own block, whether it stands above or below them. The source made the active and inactive calls. The rule behind the calls is not given here. Residues, ends and D or L forms follow the SMILES beside them. *: point of attachment. Cbz = O=C(OCc1ccccc1)*

Columns and labels:
[1] = biological target: T1, Lysine-specific histone demethylase 1A (Homo sapiens, UniProt O60341); assay: Inhibition of recombinant His-tagged LSD1 (157 to 852 residues) (unknown origin) expressed in Escherichia coli BL21 (DE3) cells using H3K4me2 peptide as substrate incubated for 30 mins by fluorescence microplate reader analysis
[2] = Retention time of the compound by HPLC-MS/MS analysis; format: physicochemical
MDA-MB-231 [3] = assay: Antimetastatic activity against human MDA-MB-231 cells expressing luciferase xenografted in female Balb/c nude mouse assessed as reduction in fluorescence intensity in lungs at 10 mg/kg, ip administered every 3 days and measured on day 15 by bioluminescence imaging analysis relative to control; format: functional; parameters: scale not given: the % may be the effect or the level left; conditions: time 15 day
MDA-MB-231 [4] = assay: Antimetastatic activity against human MDA-MB-231 cells expressing luciferase xenografted in female Balb/c nude mouse assessed as smaller metastatic nodules in lung at 10 mg/kg, ip administered every 3 days and measured after 30 days by H and E staining based analysis; format: functional, organism-based; conditions: time 30.0 day
MDA-MB-231 [5] = assay: Antitumor activity against human MDA-MB-231 cells expressing luciferase xenografted in female Balb/c nude mouse assessed as increase in body weight at 10 mg/kg, ip administered every 3 days and measured after 33 days; format: functional, organism-based; conditions: time 33.0 day
MDA-MB-231 [6] = assay: Antimetastatic activity against human MDA-MB-231 cells expressing luciferase xenografted in female Balb/c nude mouse assessed as reduction in number of metastatic nodules in the lung at 10 mg/kg, ip administered every 3 days and measured after 30 days by H and E staining based histopathological analysis relative to control; format: functional; parameters: scale not given: the % may be the effect or the level left; conditions: time 30 day
MDA-MB-231 [7] = assay: Antimetastatic activity against human MDA-MB-231 cells expressing luciferase xenografted in female Balb/c nude mouse assessed as reduction in lung metastasis at 10 mg/kg, ip administered every 3 days and measured on day 30 by bioluminescence imaging analysis; format: functional, organism-based; conditions: time 30.0 day
MDA-MB-231 [8] = assay: Inhibition of Twist1 production in human MDA-MB-231 cells at 16 uM by Western blotting analysis; format: functional, cell-based
MDA-MB-231 [9] = assay: Upregulation of RBMS3 protein expression in human MDA-MB-231 cells at 16 uM by Western blotting analysis; format: functional, cell-based
MDA-MB-231 [10] = assay: Inhibition of MMP2 production in human MDA-MB-231 cells at 16 uM by Western blotting analysis; format: functional, cell-based
MDA-MB-231 [11] = assay: Induction of LSD1 degradation in human MDA-MB-231 cells incubated for 12 hrs by Western blotting analysis; format: cell-based
[12] = biological target: T1, Lysine-specific histone demethylase 1A; assay: Binding affinity to recombinant LSD1 (unknown origin) at S817 residue by LC-MS/MS analysis

IC50 [1]: 8.08 µM
Retention_time [2]: 31.9 min
Structure (SMILES): C[C@@H]1O[C@@H](OC[C@H]2O[C@@H](OCCc3ccc(O)c(O)c3)[C@H](O)[C@@H](O)[C@@H]2OC(=O)/C=C/c2ccc(O)c(O)c2)[C@H](O)[C@H](O)[C@H]1O [FORSYTHIASIDE]

IC50 [1]: 3.6 µM
Retention_time [2]: 25.8 min
Structure (SMILES): C[C@@H]1O[C@@H](O[C@@H]2[C@@H](O)[C@H](OCCc3ccc(O)c(O)c3)O[C@H](CO)[C@H]2OC(=O)/C=C/c2ccc(O)c(O)c2)[C@H](O)[C@H](O)[C@H]1O [ACETOSIDE]

Continued, compound first:

Structure (SMILES): COc1ccc([C@@H]2OC[C@H]3[C@@H]2CO[C@@H]3c2ccc(O[C@H]3O[C@H](CO)[C@@H](O)[C@H](O)[C@H]3O)c(OC)c2)cc1OC
IC50 [1]: 5.51 µM
Retention_time [2]: 40.6 min

Structure (SMILES): CC(=O)O[C@H]1C(=O)[C@@]2(C)[C@H]([C@H](OC(=O)c3ccccc3)[C@]3(O)C[C@H](OC(=O)[C@H](O)[C@@H](NC(=O)c4ccccc4)c4ccccc4)C(C)=C1C3(C)C)[C@]1(OC(C)=O)CO[C@@H]1C[C@@H]2O [PACLITAXEL]
Activity (MDA-MB-231 [3]): 89.6%
Activity (MDA-MB-231 [4]): Active
Activity (MDA-MB-231 [5]): Active; Slight Attenuation Of Body Weight Loss Observed
IC50 [1]: 0.0296 µM
Activity (MDA-MB-231 [6]): 55.5%
Activity (MDA-MB-231 [7]): Active

Structure (SMILES): N[C@H]1CC[C@H](N[C@@H]2C[C@H]2c2ccccc2)CC1
inhibition (MDA-MB-231 [8]): Active
AC30 (MDA-MB-231 [9]): Active
inhibition (MDA-MB-231 [10]): Active

Structure (SMILES): CC(C)C[C@@H](C=O)NC(=O)[C@H](CC(C)C)NC(=O)[C@H](CC(C)C)NC(=O)OCc1ccccc1 (Cbz-Leu-Leu-Leu-aldehyde)
Activity (MDA-MB-231 [11]): inactive

Structure (SMILES): C[C@@H]1O[C@H](OC[C@H]2O[C@@H](OCCc3ccc(O)c(O)c3)[C@H](O)[C@@H](OC(=O)CCc3ccc(O)c(O)c3)[C@@H]2O)[C@H](O)[C@H](O)[C@H]1O
Activity [12]: inactive
inhibition [1]: inactive
